Measurements published in PMC6662706, “Short amylin receptor antagonist peptides improve memory deficits in Alzheimer’s disease mouse model” (Scientific Reports, 2019).
No end group written: not given here.

Columns and labels:
AMY3 receptor = target: T1, AMY3 receptor (Homo sapiens, UniProt O60896+P30988); test: Block of hAmylin-evoked cAMP generation in HEK-AMY3 cells; type: cell-based; conditions: peptide 30 min then hAmylin 1 pM–10 µM 30 min, peptides 10 µM (Fig. 1E legend), 1 µM (supplement method)
T1 construct: expressed in transfected cells
T1 sequence (P30988 25-474): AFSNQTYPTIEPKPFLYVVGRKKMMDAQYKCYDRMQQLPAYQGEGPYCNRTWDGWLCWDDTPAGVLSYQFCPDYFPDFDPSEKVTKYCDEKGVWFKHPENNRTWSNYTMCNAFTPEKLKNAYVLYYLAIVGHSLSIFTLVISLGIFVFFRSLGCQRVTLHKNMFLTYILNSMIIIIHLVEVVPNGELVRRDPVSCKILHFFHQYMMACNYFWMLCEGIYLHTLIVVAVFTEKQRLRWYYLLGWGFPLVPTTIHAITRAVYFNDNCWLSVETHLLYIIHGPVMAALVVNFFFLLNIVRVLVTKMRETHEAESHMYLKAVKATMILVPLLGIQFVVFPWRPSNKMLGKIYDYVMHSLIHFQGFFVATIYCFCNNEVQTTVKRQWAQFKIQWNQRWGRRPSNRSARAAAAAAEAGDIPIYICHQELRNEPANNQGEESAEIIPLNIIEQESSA
T1 sequence (O60896 24-148): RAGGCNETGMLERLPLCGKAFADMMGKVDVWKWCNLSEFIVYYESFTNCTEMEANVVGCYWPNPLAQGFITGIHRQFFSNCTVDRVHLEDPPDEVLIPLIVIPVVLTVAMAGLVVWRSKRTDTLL
Text: Human amylin is a potent agonist at amylin receptor stimulating cAMP production in cells. In the first in vitro bioassay, we examined ability of R5 and R14 to block the hAmylin-evoked cAMP generation in HEK-AMY3 cells. R11 peptide served as a negative control. […] In a second in vitro assay, we examined whether peptides R5, and R14 could protect human fetal neurons (HFNs) and N2a (mouse neuroblastoma cell line) from Αβ1–42 induced cytotoxicity.
A shorter peptide library was derived from AC253 peptide sequence comprising 12–14 amino acid peptides. […] To determine the activity of these shorter peptides to block AMY3 receptor signaling, cellular cAMP levels (measured using a parameter cyclic AMP assay kit, R&D Systems) and phosphorylation ERK1/2 (Western blot) were measured. We assessed neuroprotective properties of the peptide fragments against Aβ cytotoxicity in vitro using the MTT assay in N2a cell line and human fetal neurons (HFNs), which were prepared from 12- to 15-gestational week fetuses with approval of the Human Ethics Research Board at the University of Alberta as previously reported[17],[19].
For cAMP measurements, HEK-AMY3 cells were plated on 24-well plates overnight. […] Cellular cAMP levels were measured using a parameter cyclic AMP assay kit (R&D Systems) according to the manufacturer’s instructions. […]

[1] = Brain uptake of R5 compared with davalintide, wild-type and het CTR mice; type: in vivo, mouse; conditions: mouse, not told, ip
Protocol: For peptide R5 brain uptake in comparison to Davlintide, wild-type littermate (C57BL/6 background) mice and heterozygous CTR knockdown mice (50% CTR expression level compared to wild type control mice and presumably with 50% AMY receptor expression level) was used (n=5 in each group). Mouse brains were extracted after 2h from a single injection and fluorescence in brains was quantified as mentioned above.
Supplementary Figure S3: The comparison of brain permeability for R5 and Davalintide.

5XFAD mice = test: Brain amyloid pathology and neuroinflammation markers in 5XFAD mice (thioflavin-S, Western blot); type: in vivo, mouse
Text: We initiated treatment of 5XFAD and wild-type control mice at 6 month age at a time point when they had also developed very significant amyloid burden in addition to the spatial memory deficits noted above (Fig. 4A). […] There was significant reduction in the amyloid plaque numbers, and the overall amyloid burden (as judged by the area covered by plaques) in these brain regions in the peptide treated mice (Fig. 5B, p < 0.05). […] (Fig. 5C,D, p < 0.05).
After completion of treatments, the mouse brains were harvested and the right hemisphere was frozen for biochemical analysis (Western blot, ELISA), and the left hemisphere was fixed with PAF for further processed. The thicker brain sections were stained thioflavin-S for detecting Aβ plaques.
After completion of treatments, all mice were sacrificed with an overdose of isoflourane anesthetic, perfused transcardially with saline using a pump, and the brains were harvested. The right hemisphere was frozen for biochemical analysis (Western blot, ELISA), and the left hemisphere was fixed with PAF for 24 h at 4 C. These brain tissues were further processed with modified CLARITY protocol (http://www.chunglabresources.com/clarity/). Briefly, the fixed brain tissue was transferred to hydrogel monomer solution (4% acrylamide in PBS) at 4 C for 24 h, and subsequently to a 24-well plate, merged in fresh hydrogel solution and the tissue brought to 37 C till formation of the gel. Thick sagittal slices (400 μm) were cut on an HR2 Slicer (Sigman Electronic, Germany). The thicker brain sections were cleared with 8% SDS in PBS for 24 h, followed by 0.3% Triton X-100 in PBS for 24 h. Blocking the section in 2%BSA-10% goat serum for 4h. A modified thioflavin-S staining was used for detecting Aβ plaques. […] Images were visualized using fluorescence microscopy (Axioplan-2, Carl Zeiss Ltd). Amyloid plaque size and area were analyzed with Image J software.
Frozen brain tissues or cultured cells were homogenized in cold RIPA buffer with protease inhibitors and proteins were quantified with BCA assay (BioRad, Mississauga, ON, Canada). […]

[2] = 5 weeks ip, normalized to β-actin, n = 6, p < 0.05

Row | Substance | block of hAmylin-evoked cAMP increases (AMY3 receptor) | brain permeability, R5 versus davalintide [1] | amyloid proteins (Aβ, 6E10) in cortical tissue, Western blot, versus normal saline (5XFAD mice; [2]) | neuroinflammation markers CD68, NLPR3 and caspase-1, Western blot (5XFAD mice; [2]) | amyloid pathology in the cortex, hippocampus and thalamus versus saline (5XFAD mice; ip three times a week for 5 weeks, thioflavin-S)
1 | LGRLSQELHRLQTYPRTNTGSNTY-NH2 (C-terminus assumed) [AC253, reference compound] | inhibited | – | – | – | –
2 | SQELHRLQTYPR-NH2 [R5] | blocked the cAMP increases in a dose-dependent manner | greater brain permeability | significantly reduced | significantly attenuated | significantly reduced amyloid pathology
